Test results as given in patent US20240238271A1, “PHARMACEUTICAL COMPOSITION FOR ENHANCING CELL KILLING, AND USE THEREOF” (SHANGHAI JUNCELL THERAPEUTICS CO., LTD., priority 2020, published 2024).

Tests used:
type I HLA (HLA-A, B, C) [1] = test: Type I HLA on surface of tumor cells of T008 PDX mice, flow cytometry MFI; assay type: in vivo, mouse; settings: 60 mg/kg/day i.p. q.d. 30 days, vs PBS control
Protocol: (§1) PDX mouse models derived from tissue T008 and tissue T018 were established according to the method of example 3. The model animals were grouped according to the following Table 7 in which mice were treated with hydroxychloroquine alone. Hydroxychloroquine used in the experiment was purchased from MCE (Cat. No.: HY-W031727).
(§2) Mice were sacrificed 30 days after treatment, and tumor tissues were taken out and digested into a single-cell suspension with dispase. After staining with a general HLA-A, B, C flow cytometric antibody (Biolegend, PE-anti-human HLA-A, B, C Antibody Cat. NO. 311406), the phenotypes and fluorescence intensity (MFI) were measured by flow cytometry, and the MFI values of different groups of HLA-type I positive cells were counted and compared.

[2] = test system: primary tumor cells such as pancreatic tumor cells; test: Killing effect of TILs on primary tumor cells treated with hydroxychloroquine; assay type: cell-based, human
Protocol: In a specific embodiment, TILs are obtained from tumor samples of pancreatic cancer patients with reference to the method disclosed in CN110785486A (which is incorporated herein by reference in its entirety). Primary tumor cells such as pancreatic tumor cells are treated with the TILs alone (control group) or in combination with a compound of Formula (I) (e.g., hydroxychloroquine) (compound group). The cells of the compound group are treated with different concentrations of the compound of Formula (I) (e.g., hydroxychloroquine) for more than 12 hours (e.g., 24 hours). Under different effect-to-target ratios were the killing effects of TILs on target cells in the control group and the compound group detected.

HLAs = test: HLA expression (positive rate) of tumor cells treated with hydroxychloroquine; assay type: cell-based, human; settings: compound group vs control group
type I HLA (HLA-A, B, C) [3] = test: Type I HLA on surface of tumor cells of T018 PDX mice, flow cytometry MFI; assay type: in vivo, mouse; settings: 60 mg/kg/day i.p. q.d. 30 days, vs PBS control
Protocol: as §1, §2

## CCN(CCO)CCCC(C)Nc1ccnc2cc(Cl)ccc12 (centres unmarked) [hydroxychloroquine]
Type I HLA (HLA-A, B, C) [1]
  expression levels of type I HLA on the surface of tumor cells: significantly increased
[2]; compound group vs control group (TILs alone)
  concentration of hydroxychloroquine at which the effect on TIL killing is more clear: above 20 μM
[2]; primary tumor cells treated with hydroxychloroquine for more than 12 hours (e.g., 24 hours), different effect-to-target ratios, vs TILs alone
  killing effects of TILs on target cells: more effectively killed by TILs
HLAs
  positive rate of the cells (HLA expression): significantly higher
Type I HLA (HLA-A, B, C) [3]
  expression levels of type I HLA on the surface of tumor cells: significantly increased
